Results on two compounds are retold here after patent US5041542A, “Substituted pyrimido[5,4-d]pyrimidine nucleosides” (Nucleic Acid Research Institute, priority 1988, dated 1991).

The subject of data set [1] is Herpes 2, parainfluenza 3 and Vaccinia. Type of data set: cell-based. The settings on record: tested in parallel with ARPP (8).
Data set [2] in a line: Anomerization in aqueous solution (reverse-phase HPLC). Format: physicochemical. To be noted: buffered, 37° C., 9 h, no added protein. The procedure:
This would be expected where the rate of anomerization is slow compared to the rate of deamination.
The compounds of the invention are capable of crossing the cell membrane, and activated to the 5'-phosphate, thus causing the inhibition of the de novo purine biosynthesis.
HPLC Analysis: Sample components were separated with an LKB model 2150 gradient HPLC system at ambient temperature on an Altex Ultrashere-ODS reverse phase column (Beckman) developed with a linear gradient of buffer A (10 mM KPO4 ', pH 3.83) to 20% component B (60% aqueous CH3 CN) at a combined flow rate of 1.0 mL/min over 15 min. Ultraviolet (UV) absorbance was monitored with an LKB model 2140 diode array detector. Inhibition of de novo purine biosynthesis: WI-L2 or adenosine kinase-deficient cells were preincubated at 37° C. with drug for various time periods prior to labeling with [^14 C]formate. Enzyme Assays: Adenosine kinase inhibition studies were accomplished by the filter binding assay method. Inhibition studies were done at 37° C. with an assay mixture containing 4 mM ATP, 1.5 mM MgCl2, 5 or 10 μM [8-^14 C] adenosine (50 mCi/mmol) and 100 mM Tris-maleate, pH 5.5. To prevent the enzymatic breakdown of adenosine, erythro-9-(2-hydroxy-3-nonyl)adenine (EHNA) was added to the cell-free WI-L2 lysate to give 5 μM final assay concentration. The assay was started by the addition of protein. The amount of enzyme, time of assay and sampling volume were adjusted to give acceptable conversion of [8-^14 C] adenosine to [8-^14 C]AMP. Each DE-81 filter was spotted with a constant sampling volume and immersed in H 2 O (4 L) to terminate the reaction. Filters were washed three times with H2 O (4 L) and once with EtOH (100 mL). Dry filters were placed in scintillation vials and radioactivity was counted with 10 mL toluene-based scintillation cocktail.

For another data set, the target named is T1, WI-L2 adenosine kinase (Homo sapiens, UniProt P55263).
T1 construct: added to the cell-free WI-L2 lysate to give 5 μM final assay concentration; endogenous in cells; host or cells: WI-L2 B lymphoblast cells (cell-free lysate)
Nature of the data set: Adenosine kinase inhibition (filter binding assay). Format: biochemical. The settings on record: decrease in rate of [14C]AMP formation from [14C]adenosine.

The nature of a further data set: in vivo. To be noted: mouse, ip.
A further data set deals with L1210 leukemia. The settings on record: mouse, in vivo; cited from earlier work.
The subject of a further data set is CEM-V cells. Nature of the data set: Growth inhibition of normal, uninfected cells (HIV test). Type of data set: cell-based. The settings on record: Homo sapiens, 168 h. As to the method:
(§1) Compound 8 was evaluated by the National Cancer Institute for in vitro activity against human immunodeficiency virus (HIV: cell line:CEM-V). In this test the compound was screened using human "host" cells with and without virus. The test is conducted for seven days (during which time infected, non-drug treated control cells are largely or totally destroyed by the virus), and then the number of remaining viable cells are determined. […] A therapeutic index (TI) can be calculated as the IC/EC ratio.

For the next data set, the system named is DNA and RNA viruses. The settings on record: cited from earlier work.
The test system of data set [3] is human immunodeficiency virus. The experiment in a line: In vitro activity against HIV, viral cytopathic effect. Type of data set: cell-based. As to the method:
as §1
A general note: Protection from cytopathic effect is a common read-out in antiviral testing.

T1 sequence (P55263 whole entry): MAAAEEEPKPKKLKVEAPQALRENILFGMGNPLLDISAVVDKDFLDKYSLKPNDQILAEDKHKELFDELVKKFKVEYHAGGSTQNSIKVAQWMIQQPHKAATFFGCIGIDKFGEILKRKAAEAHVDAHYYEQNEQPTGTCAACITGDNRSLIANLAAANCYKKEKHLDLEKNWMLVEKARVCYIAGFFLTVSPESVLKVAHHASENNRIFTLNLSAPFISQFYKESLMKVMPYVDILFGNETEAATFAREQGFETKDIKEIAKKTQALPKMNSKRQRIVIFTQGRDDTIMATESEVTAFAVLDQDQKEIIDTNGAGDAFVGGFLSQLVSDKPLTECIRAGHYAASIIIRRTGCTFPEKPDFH

`COc1ncnc2c(N[C@@H]3O[C@H](CO)[C@@H](O)[C@H]3O)ncnc12` [Compound 14, 4-Methoxy-8-(β-D-ribofuranosylamino)pyrimido[5,4-d]pyrimidine]: in data set [1], the “Antiviral activity in cell culture” value was “antiviral activity”. In data set [2], the “21 (anomeric mixture) formed from compound 14” value is recorded as 0.42% and the “α-anomer 17 formed from compound 14” value was 1.35%. Also, the “direct inhibition of adenosine kinase” value at WI-L2 adenosine kinase is reported as “Direct inhibition”. Further, the MTD in “in vivo” turned out to be 62 mg/kg.

In general, IC50 refers to the concentration at which inhibition is half-maximal. One may read the IC90 as the concentration at which the effect reaches the 90% level. Read a high IC90 as weaker potency. As usually defined, the EC50 is the concentration that produces a half-maximal response. The EC90 is the concentration needed for an effect of 90%. For `Nc1ncnc2c(N[C@@H]3O[C@H](CO)[C@@H](O)[C@H]3O)ncnc12` [Compound 8, 4-Amino-8-(β-D-ribofuranosylamino)pyrimido[5,4-d]pyrimidine, reference compound], in the data set on L1210 leukemia, the “growth of L1210 leukemia in mice (cited)” value is “inhibits the growth of L1210 leukemia in mice”. In the data set on CEM-V cells (read-out: IC50 (50% growth inhibition), seven days), the IC50 came to 1.95 µM. In addition, the 90% effect level in the data set on CEM-V cells (seven days) (IC90) was put at 6.6 µM. Also, the “antiviral activity in cell culture (cited)” value in the data set on DNA and RNA viruses was “antiviral activity for DNA and RNA viruses in cell culture by inhibiting viral protein synthesis”. In data set [3] (Human immunodeficiency virus 1, 168 h, read-out: EC50 (50% reduction of viral cytopathic effect)), the half-maximal effective concentration (EC50) is 0.0951 µM. Besides, in data set [3] (Human immunodeficiency virus 1, 168 h, HIV, CEM-V cells, seven days, read-out: EC90 (90% reduction of viral cytopathic effect)), the EC90 was determined as 0.768 µM. Moreover, the “therapeutic index at 50% (IC/EC ratio)” value in data set [3] (IC50/EC50, HIV, CEM-V, 10080 min) is given as 2.05×10^1. In addition, in data set [3] (IC90/EC90, HIV, CEM-V, 10080 min), the “therapeutic index at 90% (IC/EC ratio)” value is given as 8.60×10^0.
